In paper PMC10961359, “Targeting hexokinase 2 for oral cancer therapy: structure-based design and validation of lead compounds” (Frontiers in Pharmacology, 2024):

Key:
LC3B in Cal27 cells = experiment: Immunofluorescence LC3B / MitoTracker Red colocalization (mitophagy); assay type: cell-based; details: Cal27, 4 h
Procedure: Cal27 cells were treated with respective compounds for 4h, and washed with PBS and fixed with 100% methanol. The non-specific antibody binding was blocked by incubating with 5% goat serum in 0.3% Triton X-100 for 1 h. The diluted primary antibody (LC3B mAb, CST Cat# 3868) and MitoTracker Red (CST, Cat# 9082) were applied and samples were incubated overnight at 4°C followed by addition of fluorescently labelled secondary antibody for 2 h at room temperature and visualized using Leica DMi8 laser scanning confocal microscope using the Leica LAS X software. To analyze the extent of mitophagy in the captured images, the colocalization area of green (LC3B) and red (Mito-Red) portions were quantified using the LAS X software. The LC3B MFI was also quantified and represented in gray values.
Mitochondria utilize the oxidizable substrates to produce a membrane potential as the proton gradient ([Sivandzade et al., 2019]). Loss in mitochondrial membrane potential (MMP) is a direct measurement of mitochondrial stress and may cause the release of apoptotic factors leading to cell death ([Zhang et al., 2017]). […] To determine the change in MMP post-treatment with HK2 inhibitors, the cells were treated with 200 nM of TMRE (tetramethyl rhodamine ethyl ester, a cell-permeant cationic dye readily sequestered by active mitochondria) and flow cytometric analyses of TMRE uptake was carried out. […]

FaDu cells = experiment: 2-NBDG glucose uptake assay (flow cytometry), FaDu; assay type: cell-based; details: 10 μM and 30 μM, 72 h, vs DMSO control
Procedure: FaDu and Cal27 cells were treated with test compounds (0.2 million cells per treatment) and were incubated for 1 h with 100 μM of 2-NBDG (Invitrogen, N13195), in glucose free medium, washed with ice-cold PBS, and re-suspended in 500 μL of PBS and maintained on ice to perform flow cytometric analyses within 30 min. The mean fluorescent intensity (MFI) readout reflects the amount of fluorescent glucose analog taken up by the cells, providing insight into their glucose uptake capacity. The percent (%) cell population positive for glucose uptake (shown with a right shift of the histogram peaks) were also plotted for both the cell lines. For MMP analysis, cells were incubated with 200 nM of TMRE (Invitrogen, T669) for 30 min. For each measurement, data was collected for 10,000 events using a BD FACS Aria III (Becton Dickinson, San Jose, CA) instrument.
2-[N-(7-Nitrobenz-2-oxa-1,3-diaxol-4-yl) amino]-2-deoxyglucose (2-NBDG) uptake into cells happens via glucose transporters and post uptake 2-NBDG gets phosphorylated by hexokinases. Since cancer cells represent higher glycolytic activity, the inhibition of HK2 activity in cancer cells is actively reflected in the inhibition of 2-NBDG uptake ([Hung et al., 2022]; [Li et al., 2022]). […] In this assay, the MFI of intracellular 2-NBDG serves as a quantitative measure of cellular glucose uptake. […] This finding is further supported by the increased % population of 2-NBDG positive cells in Cal27 cells compared to FaDu cells (Figure 3).

Cal27 cells = experiment: Annexin V FITC / propidium iodide apoptosis assay, Cal27; assay type: cell-based; details: Cal27, 10 and 30 μM, 72 h
Procedure: FaDu and Cal27 cells were treated with the test compounds (0.5 million cells per treatment) for 72 h, and harvested for cell cycle analysis (Cat# BD340242) and apoptosis analysis (Cat# BD556547) by flow cytometry according to manufacturer’s instructions.
To determine the effect of HK2 inhibition in the progression of the cell cycle, flow cytometric analysis of compound-treated FaDu and Cal27 cells was carried out 72 h post-treatment. Cell cycle analysis is carried out to quantify the DNA content and estimate the percentages of the cell population in different cell cycle phases via propidium iodide staining. […] To determine the apoptosis-inducing activity of HK2 inhibitors, 10 and 30 μM of compounds H2 and H10 treated FaDu and Cal27 cells were stained with annexin V conjugated with FITC, followed by propidium iodide staining.

Cal27 oral cancer cells = experiment: MTT antiproliferative assay, Cal27; assay type: cell-based; details: Homo sapiens, CAL-27; MTT, 72 h treatment; mean ± SEM; read-out: GI50 for Cal27
Procedure: FaDu cell line was cultured in RPMI-1640 medium containing L-glutamine (300 mg/L) and sodium bicarbonate (2 g/L), while Cal27, HEK293 and HFF-1 cell lines were cultured in DMEM medium containing glucose (4.5 g/L), L-glutamine (584 mg/L) and sodium bicarbonate (3.7 g/L). For gene expression and qPCR studies, RNA isolation was performed using Trizol (Thermo). The reagents and the primer sequences employed for the qPCR assays have been described previously ([Chakraborty et al., 2022]).
The hits derived from the docking study were sourced from either commercial suppliers or pre-existing compounds within our laboratory or were synthesized anew. The FaDu and Cal27 oral cancer cells were treated with the compounds for 72 h at concentrations of 3, 10, 30, and 100 μM. A post-treatment MTT assay was done to evaluate their antiproliferative activity. Table S2 represents the anti-proliferative and enzyme inhibitory activity of the compounds obtained as hits from the structure-based drug design strategy. […] Consequently, 50 μM of all the hit compounds were evaluated for their HK2 enzyme inhibitory activity. 50 μM of compounds were incubated with HK2 protein and the rate of reaction was assessed in kinetic mode (rate of conversion of NAD to NADH). The choice of 50 μM concentration was based primarily on MTT assays and GI50 calculation. The average GI50 values of the hit compounds against less sensitive FaDu cell line was approximately 50 μM. Considering this information, we reasoned that utilizing a concentration equivalent to the average GI50 would allow us to assess the maximum inhibitory effect of the compounds on HK2 enzyme activity. […] The same compounds have been previously reported by our team to have EGFR phosphorylation inhibitory potential and were coded as H2 (compound 14) and H10 (compound 11) ([Chakraborty et al., 2022]). […] Figures 1C,D show the lead compounds H2 and H10 at the active site of HK2 enzyme interacting via H-bonds with the amino acid residues.

[1] = system: EGFR tyrosine kinase receptor phosphorylation; design: method as in Chakraborty et al., 2022; details: 10 µM, 72 h of treatment; ref Chakraborty et al., 2022; cited from earlier work

With COc1ccc(CNC(=O)c2nc3ccccc3s2)cc1O [Compound 14, N-(3-hydroxy-4methoxybenzyl)benzo[d]thiazole-2-carboxamide] the “LC3B expression and co-localization with MitoTracker Red (mitophagy)” value (LC3B in Cal27 cells) was “increase in LC3B expression”, the “2-NBDG MFI” value (FaDu cells) was “significant reduction” and the apoptosis-inducing activity (Cal27 cells) was “late apoptotic and necrotic effects”. For the same compound, the GI50 (Cal27 oral cancer cells) was 21.7 µM and the “phosphorylation of the EGFR tyrosine kinase receptor” value [1] was “inhibits the phosphorylation”.
